The target in one assay is T1, human NK3 receptor (Homo sapiens, UniProt P29371).
T1 construct: expressed in transfected cells; host or cells: CHO cells
T1 sequence (P29371 1-465): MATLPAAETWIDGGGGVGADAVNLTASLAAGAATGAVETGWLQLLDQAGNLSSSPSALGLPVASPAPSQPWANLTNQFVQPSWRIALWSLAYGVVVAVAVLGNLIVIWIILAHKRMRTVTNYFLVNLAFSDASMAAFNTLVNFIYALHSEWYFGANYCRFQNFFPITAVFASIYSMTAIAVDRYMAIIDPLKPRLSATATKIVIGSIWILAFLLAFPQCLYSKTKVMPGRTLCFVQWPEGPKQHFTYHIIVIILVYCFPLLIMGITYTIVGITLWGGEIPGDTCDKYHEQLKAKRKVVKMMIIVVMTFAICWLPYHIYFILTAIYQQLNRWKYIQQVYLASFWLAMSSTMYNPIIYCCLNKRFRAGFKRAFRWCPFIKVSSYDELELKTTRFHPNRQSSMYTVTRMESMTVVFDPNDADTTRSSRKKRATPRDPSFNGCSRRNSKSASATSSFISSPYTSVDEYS
As to the kind of experiment: binding of [^125 I]His[MePhe^7 ]NKB to the cloned human NK3 receptors expressed by CHO cells. Conditions: from comparison of Ki values for human NK3 and other tachykinin receptors. How it is done: In studies on the binding of a ligand, the inhibition constant Ki is defined by the Cheng-Prusoff equation (in Receptor Binding in Drug Research, eds. R. A. O'BRIEN. Marcel Dekker, New York, 1986): [formula] [L]: ligand concentration Kd: dissociation constant of the ligand,
The affinity of the compounds of formula (I') for the tachykinin receptors was evaluated in vitro by several biochemical assays using radioligands:
3) The binding of [^125 I]His[MePhe^7 ]NKB to the NK3 receptors of rat cerebral cortex, of guinea pig cerebral cortex and of gerbil cerebral cortex as well as to the cloned human NK3 receptors expressed by CHO cells (Buell et al., FEBS Letters, 1992, 299, 90-95).
The assays were carried out according to X. Emonds-Alt et al. (Eur. J. Pharmacol., 1993, 250, 403-413).

The test system of assay [1] is NK3 receptor. As to the kind of experiment: rotating behavior induced by intrastriatal administration of senktide in gerbils. Type of assay: in vivo. The following applies: unilateral application in the gerbil striatum; agonist alone. The protocol:
(§1) The compounds according to the present invention were also evaluated in vivo on two animal models.

For assay [2], the system named is NK3 receptor. Briefly: hypertension induced by intravenous or intracerebroventricular injection of senktide in guinea pigs. Type of assay: in vivo, guinea pig. Conditions: agonist alone. How it is done: as §1

Each structure is given as a SMILES string. Residues, ends and D or L forms follow the SMILES beside them.

Turning to `CN(CC(CCCN1CCC(O)(c2ccccc2)CC1)c1ccc(Cl)c(Cl)c1)C(=O)c1ccccc1.Cl` (stereo not shown) [Example 22 of Application EP 474561, N-Methyl-N-[2-(3,4-dichlorophenyl)-5-(4-hydroxy-4-phenylpiperid-1-yl)pentyl]benzamide hydrochloride], the “selectivity / specificity for the human NK3 receptor” value on human NK3 receptor is on record as “high specificity”.

For `Cl.O=C1CCC(CCN2CCC(O)(c3ccccc3)CC2)(c2ccc(Cl)c(Cl)c2)CN1Cc1ccccc1` (stereo not shown) [compound A, 5-[2-(4-hydroxy-4-phenylpiperid-1-yl)ethyl]-5-(3,4-dichlorophenyl)-1-benzylpiperid-2-one hydrochloride], the “selectivity / specificity for the human NK3 receptor” value on human NK3 receptor is “not selective for the human NK3 receptor”.

Take `CSCC[C@H](NC(=O)[C@H](CC(C)C)NC(=O)CNC(=O)[C@H](Cc1ccccc1)N(C)C(=O)[C@H](Cc1ccccc1)NC(=O)[C@H](CC(=O)O)NC(=O)CCC(=O)O)C(N)=O` [senktide] (HELM PEPTIDE1{[O=C(O)CCC(=O)[*:2]].D.F.[meF].G.L.M.[am]}$$$$V2.0): the rotating behavior result with NK3 receptor [1] is given as “strong contralateral rotations”. Besides, in the assay with NK3 receptor [2], the hypertension entry is given as “induces a hypertension”.

The values are drawn from patent publication US5942523A, “Compounds which are selective antagonists of the human NK3 receptor and their use as medicinal products and diagnostic tools” (Sanofi, priority 1994, dated 1999).
